Test system: 922993-354-T-J3-PDC complex spheroids, viability
Assay: Anticancer human tumor 922993-354-T-J3-PDC patient-derived endometrial carcinoma cell line growth inhibition [GQUAD]
Settings: for IC50: curve of first compound; for viability, T/C: stronger effect = lower value
Outline: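 Viability of tumor cells grown as complex spheroids with endothelial and stromal cells, exposed to drug combinations. Top concentration at or near clinical Cmax (else 10 microM), diluted in half-log increments.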

[1] = second compound 0.0316 µM, first compound 0.0316 µM
[2] = second compound 0.0316 µM, first compound 0.1 µM
[3] = second compound 0.0316 µM, first compound 0.316 µM
[4] = second compound 0.0316 µM, first compound 1 µM
[5] = second compound 0.0316 µM, first compound 3.16 µM
[6] = second compound 0.0316 µM, first compound 10 µM
[7] = second compound 0.1 µM, first compound 0.0316 µM
[8] = second compound 0.1 µM, first compound 0.1 µM
[9] = second compound 0.1 µM, first compound 0.316 µM
[10] = second compound 0.1 µM, first compound 1 µM
[11] = second compound 0.1 µM, first compound 3.16 µM
[12] = second compound 0.1 µM, first compound 10 µM
[13] = second compound 0.316 µM, first compound 0.0316 µM
[14] = second compound 0.316 µM, first compound 0.1 µM
[15] = second compound 0.316 µM, first compound 0.316 µM
[16] = second compound 0.316 µM, first compound 1 µM
[17] = second compound 0.316 µM, first compound 3.16 µM
[18] = second compound 0.316 µM, first compound 10 µM
[19] = second compound 1 µM, first compound 0.0316 µM
[20] = second compound 1 µM, first compound 0.1 µM
[21] = second compound 1 µM, first compound 0.316 µM
[22] = second compound 1 µM, first compound 1 µM
[23] = second compound 1 µM, first compound 3.16 µM
[24] = second compound 1 µM, first compound 10 µM
[25] = second compound 3.16 µM, first compound 0.0316 µM
[26] = second compound 3.16 µM, first compound 0.1 µM
[27] = second compound 3.16 µM, first compound 0.316 µM
[28] = second compound 3.16 µM, first compound 1 µM
[29] = second compound 3.16 µM, first compound 3.16 µM
[30] = second compound 3.16 µM, first compound 10 µM
[31] = second compound 10 µM, first compound 0.0316 µM
[32] = second compound 10 µM, first compound 0.1 µM
[33] = second compound 10 µM, first compound 0.316 µM
[34] = second compound 10 µM, first compound 1 µM
[35] = second compound 10 µM, first compound 3.16 µM
[36] = second compound 10 µM, first compound 10 µM
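Also: spheroids exposed to compounds for seven days.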
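For viability, T/C in this document: 100% = DMSO vehicle control viability.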

C#Cc1c(F)ccc2cc(O)cc(-c3ncc4c(N5CC6CCC(C5)N6)nc(OCC56CCCN5CC(F)C6)nc4c3F)c12 (stereo unspecified) + Cc1cnc(CNC(=O)c2c(=O)c3ccc(N4CCCN(C)CC4)nc3n3c2sc2ccccc23)cn1
IC50 (second compound 0.0316 µM): > 10000 nM | IC50 (second compound 0.1 µM): > 10000 nM | IC50 (second compound 0.316 µM): 89.4 nM | IC50 (second compound 1 µM): < 31.6 nM | IC50 (second compound 3.16 µM): < 31.6 nM | IC50 (second compound 10 µM): < 31.6 nM | viability, T/C [1]: 75.3% | viability, T/C [2]: 81.8% | viability, T/C [3]: 74.4% | viability, T/C [4]: 70% | viability, T/C [5]: 86.9% | viability, T/C [6]: 56.8% | viability, T/C [7]: 64.3% | viability, T/C [8]: 70.2% | viability, T/C [9]: 56% | viability, T/C [10]: 51.6% | viability, T/C [11]: 54% | viability, T/C [12]: 61.1% | viability, T/C [13]: 61.9% | viability, T/C [14]: 51.4% | viability, T/C [15]: 42.5% | viability, T/C [16]: 37% | viability, T/C [17]: 41.2% | viability, T/C [18]: 50.3% | viability, T/C [19]: 42.1% | viability, T/C [20]: 45.2% | viability, T/C [21]: 38.4% | viability, T/C [22]: 36.2% | viability, T/C [23]: 50.2% | viability, T/C [24]: 44.5% | viability, T/C [25]: 46.6% | viability, T/C [26]: 43.8% | viability, T/C [27]: 42.2% | viability, T/C [28]: 44.6% | viability, T/C [29]: 45.9% | viability, T/C [30]: 42.5% | viability, T/C [31]: 40.5% | viability, T/C [32]: 38.7% | viability, T/C [33]: 39.3% | viability, T/C [34]: 44.8% | viability, T/C [35]: 40.3% | viability, T/C [36]: 34.2%

CC(=O)O[C@H]1C(=O)[C@@]2(C)[C@H]([C@H](OC(=O)c3ccccc3)[C@]3(O)C[C@H](OC(=O)[C@H](O)[C@@H](NC(=O)c4ccccc4)c4ccccc4)C(C)=C1C3(C)C)[C@]1(OC(C)=O)CO[C@@H]1C[C@@H]2O + Cc1cnc(CNC(=O)c2c(=O)c3ccc(N4CCCN(C)CC4)nc3n3c2sc2ccccc23)cn1
IC50 (second compound 0.0316 µM): 8750 nM | IC50 (second compound 0.1 µM): 9750 nM | IC50 (second compound 0.316 µM): < 31.6 nM | IC50 (second compound 1 µM): < 31.6 nM | IC50 (second compound 3.16 µM): < 31.6 nM | IC50 (second compound 10 µM): < 31.6 nM | viability, T/C [1]: 84.5% | viability, T/C [2]: 79.3% | viability, T/C [3]: 97.9% | viability, T/C [4]: 83% | viability, T/C [5]: 70.7% | viability, T/C [6]: 47.3% | viability, T/C [7]: 59.2% | viability, T/C [8]: 86.9% | viability, T/C [9]: 71.6% | viability, T/C [10]: 59.3% | viability, T/C [11]: 74.3% | viability, T/C [12]: 49.5% | viability, T/C [13]: 54.5% | viability, T/C [14]: 49.6% | viability, T/C [15]: 43.3% | viability, T/C [16]: 52.7% | viability, T/C [17]: 73.5% | viability, T/C [18]: 53.3% | viability, T/C [19]: 42.8% | viability, T/C [20]: 58% | viability, T/C [21]: 51.3% | viability, T/C [22]: 46.5% | viability, T/C [23]: 53% | viability, T/C [24]: 46% | viability, T/C [25]: 44.1% | viability, T/C [26]: 50.6% | viability, T/C [27]: 45.9% | viability, T/C [28]: 45.1% | viability, T/C [29]: 67.6% | viability, T/C [30]: 60.3% | viability, T/C [31]: 48.1% | viability, T/C [32]: 45.4% | viability, T/C [33]: 40.8% | viability, T/C [34]: 40.2% | viability, T/C [35]: 46.5% | viability, T/C [36]: 46.4%

CCCS(=O)(=O)Nc1ccc(F)c(C(=O)c2c[nH]c3ncc(-c4ccc(Cl)cc4)cc23)c1F + Cc1cnc(CNC(=O)c2c(=O)c3ccc(N4CCCN(C)CC4)nc3n3c2sc2ccccc23)cn1
IC50 (second compound 0.0316 µM): > 10000 nM | IC50 (second compound 0.1 µM): 777 nM | IC50 (second compound 0.316 µM): 37 nM | IC50 (second compound 1 µM): 64.2 nM | IC50 (second compound 3.16 µM): < 31.6 nM | IC50 (second compound 10 µM): < 31.6 nM | viability, T/C [1]: 93.5% | viability, T/C [2]: 83.8% | viability, T/C [3]: 83.3% | viability, T/C [4]: 78.4% | viability, T/C [5]: 84.6% | viability, T/C [6]: 63.8% | viability, T/C [7]: 60.9% | viability, T/C [8]: 62.2% | viability, T/C [9]: 56.1% | viability, T/C [10]: 45.5% | viability, T/C [11]: 42.2% | viability, T/C [12]: 40% | viability, T/C [13]: 51.2% | viability, T/C [14]: 40.9% | viability, T/C [15]: 42.3% | viability, T/C [16]: 47.4% | viability, T/C [17]: 34.6% | viability, T/C [18]: 46.4% | viability, T/C [19]: 51.4% | viability, T/C [20]: 52.3% | viability, T/C [21]: 46.3% | viability, T/C [22]: 36.8% | viability, T/C [23]: 47.7% | viability, T/C [24]: 48.2% | viability, T/C [25]: 39.7% | viability, T/C [26]: 47.2% | viability, T/C [27]: 43.6% | viability, T/C [28]: 42% | viability, T/C [29]: 58% | viability, T/C [30]: 37.9% | viability, T/C [31]: 43.5% | viability, T/C [32]: 37% | viability, T/C [33]: 36.9% | viability, T/C [34]: 35.9% | viability, T/C [35]: 37.9% | viability, T/C [36]: 20.1%
